This test deals with T1, Kv1.3 potassium channel (Homo sapiens, UniProt P22001).
T1 construct: expressed in transfected cells
The experiment in a line: Kv1.3 potassium channel blocker activity, automated whole-cell patch clamp (Patchliner). Format: cell-based. Here is the method:
This assay is used to evaluate the disclosed compounds' activities as Kv1.3 potassium channel blockers.
CHO-K1 cells stably expressing Kv1.3 were grown in DMEM containing 10% heat-inactivated FBS, 1 mM sodium pyruvate, 2 mM L-glutamine and G418 (500 μg/ml). Cells were grown in culture flasks at 37° C. in a 5% CO2-humidified incubator.
The cells were bathed in an extracellular solution containing 140 mM NaCl, 4 mM KCl, 2 mM CaCl2), 1 mM MgCl2, 5 mM glucose, and 10 mM HEPES; pH adjusted to 7.4 with NaOH; 295-305 mOsm. The internal solution contained 50 mM KCl, 10 mM NaCl, 60 mM KF, 20 mM EGTA, and 10 mM HEPES; pH adjusted to 7.2 with KOH; 285 mOsm. All compounds were dissolved in DMSO at 30 mM. Compound stock solutions were freshly diluted with external solution to concentrations of 30 nM, 100 nM, 300 nM, 1 μM, 3 μM, 10 μM, 30 μM and 100 μM. The highest content of DMSO (0.3%) was present in 100 μM.
The currents were evoked by applying 100 ms depolarizing pulses from −90 mV (holding potential) to +40 mV were applied with 0.1 Hz frequency. Control (compound-free) and compound pulse trains for each compound concentration applied contained 20 pulses.
10-second breaks were used between pulse trains (see Table 2 below).
Whole-cell current recordings and compound application were enabled by means of an automated patch clamp platform Patchliner (Nanion Technologies GmbH). EPC 10 patch clamp amplifier (HEKA Elektronik Dr. Schulze GmbH) along with Patchmaster software (HEKA Elektronik Dr. Schulze GmbH) was used for data acquisition. Data were sampled at 10 kHz without filtering. Passive leak currents were subtracted online using a P/4 procedure (HEKA Elektronik Dr. Schulze GmbH). Increasing compound concentrations were applied consecutively to the same cell without washouts in between. Total compound incubation time before the next pulse train was not longer than 10 seconds. Peak current inhibition was observed during compound equilibration.
AUC and peak values were obtained with Patchmaster (HEKA Elektronik Dr. Schulze GmbH). To determine IC50, the last single pulse in the pulse train corresponding to a given compound concentration was used. Obtained AUC and peak values in the presence of compound were normalized to control values in the absence of compound. Using Origin (OridinLab), IC50 was derived from data fit to Hill equation: Icompound/Icontrol=(100−A)/(1+([compound]/IC50)nH)+A, where IC50 value is the concentration at which current inhibition is half-maximal, [compound] is the applied compound concentration, A is the fraction of current that is not blocked and nH is the Hill coefficient.
On the technique in general: In patch-clamp work, channel activity is measured electrically.

[1] abbreviates: Kv1.3 potassium channel, whole-cell patch clamp.
The mark [2] stands for this setting: CHO-K1 cells stably expressing Kv1.3, 100 ms pulses from -90 mV to +40 mV, 0.1 Hz.

T1 sequence (P22001 whole entry): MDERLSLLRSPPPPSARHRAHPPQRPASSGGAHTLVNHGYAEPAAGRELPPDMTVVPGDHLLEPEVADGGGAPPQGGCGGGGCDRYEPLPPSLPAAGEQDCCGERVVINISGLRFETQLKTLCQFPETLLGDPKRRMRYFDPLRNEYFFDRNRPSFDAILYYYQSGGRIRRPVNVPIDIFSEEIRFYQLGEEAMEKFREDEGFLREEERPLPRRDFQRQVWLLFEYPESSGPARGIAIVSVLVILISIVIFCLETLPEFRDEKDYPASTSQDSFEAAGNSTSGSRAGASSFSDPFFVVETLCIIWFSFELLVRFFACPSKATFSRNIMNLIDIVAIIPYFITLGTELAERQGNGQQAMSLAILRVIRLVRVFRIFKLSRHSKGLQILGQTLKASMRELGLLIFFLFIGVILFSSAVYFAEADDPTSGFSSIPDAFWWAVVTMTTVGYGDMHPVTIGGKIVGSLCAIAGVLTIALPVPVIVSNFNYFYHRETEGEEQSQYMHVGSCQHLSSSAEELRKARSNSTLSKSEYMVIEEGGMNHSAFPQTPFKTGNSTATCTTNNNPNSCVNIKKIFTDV

Broadly, the IC50 is the point on the concentration scale where inhibition reaches its midpoint. `C[C@@H]1[C@@H]2C[C@H](c3c(O)ccc(Cl)c3Cl)CCN2C(=O)CN1C(=O)CO` (single isomer, unassigned; isomer 1) [Compound 83] showed an IC50 under setting [1] of less than 10 µM.
In the case of `O=C(CO)N1CC(=O)N2CC[C@H](c3c(O)ccc(Cl)c3Cl)C[C@@H]2C1` [Compound 48, (8S,9aR)-8-(2,3-dichloro-6-hydroxyphenyl)-2-(2-hydroxyacetyl)-hexahydro-1H-pyrido[1,2-a]pyrazin-4-one], the IC50 under setting [2] was less than 1 µM.
In the case of `O=C(O)C1CC(=O)N2C[C@@H](c3c(O)ccc(Cl)c3Cl)C[C@H]2C1` (stereo partly drawn) [Compound 229, (2R,8aS)-2-(2,3-dichloro-6-hydroxyphenyl)-5-oxo-hexahydro-1H-indolizine-7-carboxylic acid], the IC50 under setting [1] is less than 1 µM.
With `O=C([C@@H](O)CO)N1CC(=O)N2CC[C@H](c3c(O)ccc(Cl)c3Cl)C[C@@H]2C1` [Compound 51, (8S,9aR)-8-(2,3-dichloro-6-hydroxyphenyl)-2-[(2S)-2,3-dihydroxypropanoyl]-hexahydro-1H-pyrido[1,2-a]pyrazin-4-one], the IC50 under setting [2] was less than 1 µM.
The compound `O=C1[C@@H](O)C[C@@H]2C[C@H](c3c(O)ccc(Cl)c3Cl)CN12` (single isomer, unassigned) [Compound 245] registered an IC50 under setting [1] of less than 1 µM.
Regarding `O=C(CO)N1CC(=O)N2C[C@H](c3c(O)ccc(Cl)c3Cl)CC[C@@H]2C1` (relative stereo) [Compound 26, (7S,9aR)-rel-7-(2,3-dichloro-6-hydroxyphenyl)-2-(2-hydroxyacetyl)-hexahydro-1H-pyrido[1,2-a]pyrazin-4-one], under setting [2], the IC50 was less than 10 µM.
For `O=C1C[C@@H](O)[C@@H](O)[C@@H]2C[C@H](c3c(O)ccc(Cl)c3Cl)CN12` (relative stereo) [Compound 224, (7R,8S)-rel-(2R, 8aS)-2-(2,3-dichloro-6-hydroxyphenyl)-7,8-dihydroxy-hexahydro-1H-indolizin-5-one], the concentration for half-maximal inhibition (IC50) under setting [1] was less than 1 µM.
The same measure, in the same setting: under `C[C@@H]1[C@@H]2C[C@H](c3c(O)ccc(Cl)c3Cl)CN2C(=O)CN1C(=O)CO` (single isomer, unassigned; isomer 1) [Compound 87] stands less than 1 µM; under `O=C(NCCO)[C@H]1CC(=O)N2C[C@@H](c3c(O)ccc(Cl)c3Cl)C[C@H]2C1` (single isomer, unassigned) [Compound 233], less than 1 µM; under `O=C1CN(C2CC[C@H](O)[C@@H]2O)C[C@@H]2C[C@H](c3c(O)ccc(Cl)c3Cl)CN12` (relative stereo) [Compound 135, (7R,8aS)-7-(2,3-dichloro-6-hydroxyphenyl)-2-[(2R,3S)-rel-2,3-dihydroxycyclopentyl]-hexahydropyrrolo [1,2-a]pyrazin-4-one], less than 1 µM.
With `O=C1N[C@H](CO)CN2CC[C@@H](c3c(O)ccc(Cl)c3Cl)C[C@@H]12` [Compound 6, (3S,8R,9aS)-8-(2,3-dichloro-6-hydroxyphenyl)-3-(hydroxymethyl)-octahydropyrido[1,2-a]pyrazin-1-one], the half-inhibitory concentration (IC50) under setting [2] was less than 10 µM.
In turn, `O=C1C(CO)C[C@@H]2C[C@H](c3c(O)ccc(Cl)c3Cl)CN12` (stereo partly drawn) [Compound 247, (6R,7aS)-6-(2,3-dichloro-6-hydroxyphenyl)-2-(hydroxymethyl)-hexahydropyrrolizin-3-one] came in with an IC50 under setting [1] of less than 1 µM.
Consider `O=C1C[C@H](c2cc[nH]n2)C[C@@H]2C[C@H](c3c(O)ccc(Cl)c3Cl)CN12` (single isomer, unassigned) [Compound 214], for which, under setting [1], the IC50 is less than 10 µM.
Regarding `CO[C@@H](CO)C(=O)N1CC(=O)N2CC[C@@H](c3c(O)ccc(Cl)c3Cl)C[C@H]2C1` [Compound 56, (8R,9aS)-8-(2,3-dichloro-6-hydroxyphenyl)-2-[(2S)-3-hydroxy-2-methoxypropanoyl]-hexahydro-1H-pyrido[1,2-a]pyrazin-4-one], the IC50 under setting [2] was less than 1 µM.
As for `O=C1CN(c2ncccc2CO)C[C@@H]2C[C@H](c3c(O)ccc(Cl)c3Cl)CN12` [Compound 174], the IC50 under setting [1] is less than 10 µM.
`C[C@H]1C(=O)N2C[C@@H](c3c(O)ccc(Cl)c3Cl)C[C@H]2CN1C(=O)CO` [Compound 60, (3S,7R,8aS)-7-(2,3-dichloro-6-hydroxyphenyl)-2-(2-hydroxyacetyl)-3-methyl-hexahydropyrrolo[1,2-a]pyrazin-4-one] returned an IC50 under setting [2] of less than 1 µM.
Consider `NC(=O)[C@@H]1CC(=O)N2C[C@@H](c3c(O)ccc(Cl)c3Cl)C[C@H]2C1` (single isomer, unassigned) [Compound 230], for which the IC50 under setting [1] was less than 1 µM.
Same read-out and setting: as for `C=CCN1CC(=O)N2C[C@@H](c3c(O)ccc(Cl)c3Cl)C[C@H]2C1` [Compound 113, (7R,8aS)-7-(2,3-dichloro-6-hydroxyphenyl)-2-(prop-2-en-1-yl)-hexahydropyrrolo [l,2-a]pyrazin-4-one], the figure is less than 1 µM.
On to `O=C(CCO)N1CC(=O)N2CC[C@H](c3c(O)ccc(Cl)c3Cl)C[C@@H]2C1` [Compound 58, (8S,9aR)-8-(2,3-dichloro-6-hydroxyphenyl)-2-(3-hydroxy-propanoyl)octahydro-4H-pyrido[1,2-a]pyrazin-4-one], for which the IC50 under setting [2] was less than 1 µM.
Turning to `O=C1[C@H](O)C[C@@H]2C[C@H](c3c(O)ccc(Cl)c3Cl)CN12` (single isomer, unassigned) [Compound 246], the IC50 under setting [1] was less than 1 µM.
As to `CC(C)(O)[C@H]1OC(=O)N2C[C@@H](c3c(O)ccc(Cl)c3Cl)C[C@@H]12` (single isomer, unassigned) [Compound 255], the IC50 under setting [1] was less than 1 µM.
For the compound `O=C1N[C@H](CO)CN2CC[C@H](c3c(O)ccc(Cl)c3Cl)C[C@H]12` [Compound 19, (3S,8S,9aR)-8-(2,3-dichloro-6-hydroxyphenyl)-3-(hydroxymethyl)-octahydropyrido[1,2-a]pyrazin-1-one], under setting [2], the IC50 was less than 10 µM.
In the case of `O=C1C[C@@H](c2cc[nH]n2)C[C@@H]2C[C@H](c3c(O)ccc(Cl)c3Cl)CN12` (single isomer, unassigned) [Compound 213], the IC50 under setting [1] was less than 1 µM.
Still for that read-out and setting: under `O=C1NCCC1N1CC(=O)N2C[C@@H](c3c(O)ccc(Cl)c3Cl)C[C@H]2C1` (stereo partly drawn) [Compound 109, 3-[(7R,8aS)-7-(2,3-dichloro-6-hydroxyphenyl)-4-oxo-hexahydropyrrolo [1,2-a]pyrazin-2-yl]pyrrolidin-2-one] stands less than 1 µM.
On the same count and under the same terms, as for `O=C1CC[C@@H](O)[C@@H]2C[C@H](c3c(O)ccc(Cl)c3Cl)CN12` (single isomer, unassigned) [Compound 227], the figure is less than 1 µM.
In turn, `C[C@@H](CO)C(=O)N1CC(=O)N2CC[C@H](c3c(O)ccc(Cl)c3Cl)C[C@@H]2C1` [Compound 3, (8S,9aR)-8-(2,3-dichloro-6-hydroxyphenyl)-2-((S)-3-hydroxy-2-methylpropanoyl)octahydro-4H-pyrido[1,2-a]pyrazin-4-one] gave an IC50 under setting [2] of less than 1 µM.
In the case of `O=C1CCCN1CC1OC[C@@H]2C[C@H](c3c(O)ccc(Cl)c3Cl)CCN2C1=O` (stereo partly drawn) [Compound 184, 1-[[(8R,9aS)-8-(2,3-dichloro-6-hydroxyphenyl)-4-oxo-hexahydro-1H-pyrido[2,1-c][1,4]oxazin-3-yl]methyl]pyrrolidin-2-one], the IC50 under setting [1] was less than 10 µM.
Compound `O=C1CNC[C@H]2C[C@@H](c3c(O)ccc(Cl)c3Cl)CCN12` [Compound 39] displayed an IC50 under setting [2] of less than 1 µM.
In turn, `CC(C)(O)C(=O)N1CC(=O)N2CC[C@@H](c3c(O)ccc(Cl)c3Cl)C[C@H]2C1` [Compound 31, (8R,9aS)-8-(2,3-dichloro-6-hydroxyphenyl)-2-(2-hydroxy-2-methylpropanoyl)octahydro-4H-pyrido[1,2-a]pyrazin-4-one] returned an IC50 under setting [2] of less than 1 µM.

The record behind these values is patent US20230049231A1 (priority 2019, published 2023).
